Source: ChEMBL document CHEMBL4765244, “Synthesis, bioconversion, pharmacokinetic and pharmacodynamic evaluation of N-isopropyl-oxy-carbonyloxymethyl prodrugs of CZh-226, a potent and selective PAK4 inhibitor” (Eur J Med Chem, 2020)

Tests used:
[1] = Chemical stability of the compound in pH 6.8 simulated intestinal fluid assessed as compound remaining measured after 2 hrs by HPLC analysis; format: physicochemical
[2] = Chemical stability of the compound in pH 1.2 simulated gastric fluid buffer assessed as compound remaining measured after 2 hrs by HPLC analysis; format: physicochemical
[3] = Prodrug conversion in human plasma assessed as release of active metabolite (R)-(6-chloro-4-(5-cyclopropyl-1H-pyrazol-3-ylamino)quinazolin-2-yl)(3-methylpiperazin-1-yl)methanone hydrochloride measured within 120 mins at 37 degC by HPLC analysis; format: ADME, cell-free; settings: 2 h
[4] = Cmax in Wistar rat assessed as (R)-(6-chloro-4-(5-cyclopropyl-1H-pyrazol-3-ylamino)quinazolin-2-yl)(3-methylpiperazin-1-yl)methanone hydrochloride at 13.84 mg/kg, po measured upto 24 hrs by LC/MS/MS analysis; format: ADME, organism-based; set-up: route oral, dose 13.84 mg/kg, time <=24; settings: in vivo
[5] = Half life in Wistar rat assessed as (R)-(6-chloro-4-(5-cyclopropyl-1H-pyrazol-3-ylamino)quinazolin-2-yl)(3-methylpiperazin-1-yl)methanone hydrochloride at 13.84 mg/kg, po measured upto 24 hrs by LC/MS/MS analysis; format: ADME, organism-based; settings: in vivo
[6] = AUC (0 to infinity) in Wistar rat assessed as (R)-(6-chloro-4-(5-cyclopropyl-1H-pyrazol-3-ylamino)quinazolin-2-yl)(3-methylpiperazin-1-yl)methanone hydrochloride at 13.84 mg/kg, po measured upto 24 hrs by LC/MS/MS analysis; format: ADME, organism-based; set-up: route oral, dose 13.84 mg/kg, time <=24; settings: in vivo
[7] = Chemical stability of the compound in pH 7.4 PBS buffer assessed as compound remaining measured after 2 hrs by HPLC analysis; format: physicochemical; settings: read-out: Stabilty
[8] = Stability of the compound in human plasma assessed as compound remaining measured within 120 mins at 37 degC by HPLC analysis; format: ADME, cell-free; settings: read-out: Stabilty
[9] = Stability of the compound in rat liver S9 fraction assessed as compound remaining measured after 60 mins at 37 degC by LC-MS/MS analysis; format: ADME, subcellular; settings: read-out: Stabilty
[10] = Tmax in Wistar rat assessed as (R)-(6-chloro-4-(5-cyclopropyl-1H-pyrazol-3-ylamino)quinazolin-2-yl)(3-methylpiperazin-1-yl)methanone hydrochloride at 13.84 mg/kg, po measured upto 24 hrs by LC/MS/MS analysis; format: ADME, organism-based; settings: in vivo
[11] = AUC in Wistar rat assessed as (R)-(6-chloro-4-(5-cyclopropyl-1H-pyrazol-3-ylamino)quinazolin-2-yl)(3-methylpiperazin-1-yl)methanone hydrochloride at 13.84 mg/kg, po measured upto 24 hrs by LC/MS/MS analysis; format: ADME, organism-based; set-up: route oral, dose 13.84 mg/kg, time <=24; settings: in vivo
[12] = Half life in Wistar rat at 10 mg/kg, po measured upto 24 hrs by LC/MS/MS analysis; format: ADME, organism-based; settings: in vivo
[13] = Half life in Wistar rat at 2 mg/kg, iv measured upto 24 hrs by LC/MS/MS analysis; format: ADME, organism-based; settings: in vivo
[14] = AUC (0 to infinity) in Wistar rat at 2 mg/kg, iv measured upto 24 hrs by LC/MS/MS analysis; format: ADME, organism-based; set-up: route intravenous, dose 2 mg/kg, time <=24; settings: in vivo
[15] = AUC (0 to t) in Wistar rat at 10 mg/kg, po measured upto 24 hrs by LC/MS/MS; format: ADME, organism-based; set-up: route oral, dose 10 mg/kg, time <=24; settings: in vivo
[16] = Cmax in Wistar rat at 10 mg/kg, po measured upto 24 hrs by LC/MS/MS analysis; format: ADME, organism-based; set-up: route oral, dose 10 mg/kg, time <=24; settings: in vivo
[17] = AUC (0 to infinity) in Wistar rat at 10 mg/kg, po measured upto 24 hrs by LC/MS/MS analysis; format: ADME, organism-based; set-up: route oral, dose 10 mg/kg, time <=24; settings: in vivo
[18] = Tmax in Wistar rat at 10 mg/kg, po measured upto 24 hrs by LC/MS/MS analysis; format: ADME, organism-based; settings: in vivo
[19] = Volume of distribution in Wistar rat at 2 mg/kg, iv measured upto 24 hrs by LC/MS/MS analysis; format: ADME, organism-based; settings: in vivo
[20] = Oral bioavailability in Wistar rat assessed as (R)-(6-chloro-4-(5-cyclopropyl-1H-pyrazol-3-ylamino)quinazolin-2-yl)(3-methylpiperazin-1-yl)methanone hydrochloride at 10 mg/kg measured upto 24 hrs by LC/MS/MS analysis; format: ADME, organism-based; settings: in vivo
[21] = Initial plasma concentration in Wistar rat at 2 mg/kg, iv measured upto 24 hrs by LC/MS/MS analysis; format: ADME, organism-based; settings: in vivo
[22] = AUC in Wistar rat at 2 mg/kg, iv measured upto 24 hrs by LC/MS/MS analysis; format: ADME, organism-based; set-up: route intravenous, dose 2 mg/kg, time <=24; settings: in vivo
[23] = Clearance in Wistar rat at 2 mg/kg, iv measured upto 24 hrs by LC/MS/MS analysis; format: ADME, organism-based; settings: in vivo
[24] = Tmax in Wistar rat assessed as (R)-(6-chloro-4-(5-cyclopropyl-1H-pyrazol-3-ylamino)quinazolin-2-yl)(3-methylpiperazin-1-yl)methanone hydrochloride at 14.18 mg/kg, po measured upto 24 hrs by LC/MS/MS analysis; format: ADME, organism-based; settings: in vivo
[25] = Half life in Wistar rat assessed as (R)-(6-chloro-4-(5-cyclopropyl-1H-pyrazol-3-ylamino)quinazolin-2-yl)(3-methylpiperazin-1-yl)methanone hydrochloride at 14.18 mg/kg, po measured upto 24 hrs by LC/MS/MS analysis; format: ADME, organism-based; settings: in vivo
[26] = Cmax in Wistar rat assessed as (R)-(6-chloro-4-(5-cyclopropyl-1H-pyrazol-3-ylamino)quinazolin-2-yl)(3-methylpiperazin-1-yl)methanone hydrochloride at 14.18 mg/kg, po measured upto 24 hrs by LC/MS/MS analysis; format: ADME, organism-based; set-up: route oral, dose 14.18 mg/kg, time <=24; settings: in vivo
[27] = AUC (0 to infinity) in Wistar rat assessed as (R)-(6-chloro-4-(5-cyclopropyl-1H-pyrazol-3-ylamino)quinazolin-2-yl)(3-methylpiperazin-1-yl)methanone hydrochloride at 14.18 mg/kg, po measured upto 24 hrs by LC/MS/MS analysis; format: ADME, organism-based; set-up: route oral, dose 14.18 mg/kg, time <=24; settings: in vivo
[28] = AUC in Wistar rat assessed as (R)-(6-chloro-4-(5-cyclopropyl-1H-pyrazol-3-ylamino)quinazolin-2-yl)(3-methylpiperazin-1-yl)methanone hydrochloride at 14.18 mg/kg, po measured upto 24 hrs by LC/MS/MS analysis; format: ADME, organism-based; set-up: route oral, dose 14.18 mg/kg, time <=24; settings: in vivo
[29] = Cmax in Wistar rat assessed as (R)-(6-chloro-4-(5-cyclopropyl-1H-pyrazol-3-ylamino)quinazolin-2-yl)(3-methylpiperazin-1-yl)methanone hydrochloride at 12.43 mg/kg, po measured upto 24 hrs by LC/MS/MS analysis; format: ADME, organism-based; set-up: route oral, dose 12.43 mg/kg, time <=24; settings: in vivo
[30] = Half life in Wistar rat assessed as (R)-(6-chloro-4-(5-cyclopropyl-1H-pyrazol-3-ylamino)quinazolin-2-yl)(3-methylpiperazin-1-yl)methanone hydrochloride at 12.43 mg/kg, po measured upto 24 hrs by LC/MS/MS analysis; format: ADME, organism-based; settings: in vivo
[31] = Tmax in Wistar rat assessed as (R)-(6-chloro-4-(5-cyclopropyl-1H-pyrazol-3-ylamino)quinazolin-2-yl)(3-methylpiperazin-1-yl)methanone hydrochloride at 12.43 mg/kg, po measured upto 24 hrs by LC/MS/MS analysis; format: ADME, organism-based; settings: in vivo
[32] = AUC in Wistar rat assessed as (R)-(6-chloro-4-(5-cyclopropyl-1H-pyrazol-3-ylamino)quinazolin-2-yl)(3-methylpiperazin-1-yl)methanone hydrochloride at 12.43 mg/kg, po measured upto 24 hrs by LC/MS/MS analysis; format: ADME, organism-based; set-up: route oral, dose 12.43 mg/kg, time <=24; settings: in vivo
[33] = AUC (0 to infinity) in Wistar rat assessed as (R)-(6-chloro-4-(5-cyclopropyl-1H-pyrazol-3-ylamino)quinazolin-2-yl)(3-methylpiperazin-1-yl)methanone hydrochloride at 12.43 mg/kg, po measured upto 24 hrs by LC/MS/MS analysis; format: ADME, organism-based; set-up: route oral, dose 12.43 mg/kg, time <=24; settings: in vivo

SMILES: C[C@@H]1CN(C(=O)c2nc(Nc3cc(C4CC4)[nH]n3)c3cc(Cl)ccc3n2)CCN1C(=O)OCOC(=O)C(C)(C)C
- Stability [1]: 93%
- Stability [2]: 83.9%
- Drug metabolism [3]: 94%
- Cmax [4]: 0.0028 µg/mL
- t1/2 [5]: 30.204 h
- AUC [6]: 0.0676 µg·h/mL
- remaining at 2 h [7]: 97.7%
- remaining at 2 h [8]: 0%
- remaining at 1 h [9]: 47%
- Tmax [10]: 4.98 min
- AUC [11]: 0.0288 µg·h/mL

SMILES: CCOC(=O)N1CCN(C(=O)c2nc(Nc3cc(C4CC4)[nH]n3)c3cc(Cl)ccc3n2)C[C@H]1C
- Stability [1]: 92.9%
- Stability [2]: 89.5%
- Drug metabolism [3]: 14.8%
- remaining at 2 h [7]: 97.7%
- remaining at 2 h [8]: 85.3%
- remaining at 1 h [9]: 48.5%

SMILES: COC(=O)N1CCN(C(=O)c2nc(Nc3cc(C4CC4)[nH]n3)c3cc(Cl)ccc3n2)C[C@H]1C
- Stability [1]: 91.5%
- Stability [2]: 95.2%
- Drug metabolism [3]: 13.4%
- remaining at 2 h [7]: 100%
- remaining at 2 h [8]: 84.6%
- remaining at 1 h [9]: 34.2%

SMILES: C[C@@H]1CN(C(=O)c2nc(Nc3cc(C4CC4)[nH]n3)c3cc(Cl)ccc3n2)CCN1.Cl
- half-life [12]: 3.9 h
- half-life [13]: 4.8 h
- AUC(0-inf) [14]: 1.12 µg·h/mL
- AUC(0-t) at 24 h [15]: 0.106 µg·h/mL
- Cmax [16]: 0.0149 µg/mL
- AUC(0-inf) [17]: 0.108 µg·h/mL
- Tmax [18]: 4.98 min
- Vd [19]: 12.4 L/kg
- F [20]: 1.92%
- C0 [21]: 4.52 µg/mL
- remaining at 2 h [8]: 97.4%
- AUC at 24 h [22]: 1.11 µg·h/mL
- clearance [23]: 1.78 L/h/kg
- remaining at 1 h [9]: 53.9%

SMILES: CC(OC(=O)C(C)C)OC(=O)N1CCN(C(=O)c2nc(Nc3cc(C4CC4)[nH]n3)c3cc(Cl)ccc3n2)C[C@H]1C (stereo not given in full)
- Stability [1]: 88.6%
- Stability [2]: 62.5%
- Drug metabolism [3]: 78.8%
- Cmax [4]: 0.0283 µg/mL
- t1/2 [5]: 10.35 h
- AUC [6]: 0.0596 µg·h/mL
- remaining at 2 h [7]: 96.6%
- remaining at 2 h [8]: 17.4%
- remaining at 1 h [9]: 11%
- Tmax [10]: 4.98 min
- AUC [11]: 0.05 µg·h/mL

SMILES: CCCCCOC(=O)N1CCN(C(=O)c2nc(Nc3cc(C4CC4)[nH]n3)c3cc(Cl)ccc3n2)C[C@H]1C
- Stability [1]: 90.7%
- Stability [2]: 88.4%
- Drug metabolism [3]: 21.4%
- remaining at 2 h [7]: 99.8%
- remaining at 2 h [8]: 74.4%
- remaining at 1 h [9]: 63.9%

SMILES: C[C@@H]1CN(C(=O)c2nc(Nc3cc(C4CC4)[nH]n3)c3cc(Cl)ccc3n2)CCN1C(=O)OCC(Cl)(Cl)Cl
- Stability [1]: 88.2%
- Stability [2]: 88.5%
- Drug metabolism [3]: 16.3%
- remaining at 2 h [7]: 98.7%
- remaining at 2 h [8]: 79%
- remaining at 1 h [9]: 78.9%

SMILES: CC(OC(=O)N1CCN(C(=O)c2nc(Nc3cc(C4CC4)[nH]n3)c3cc(Cl)ccc3n2)C[C@H]1C)OC(=O)C(C)(C)C (stereo not given in full)
- Tmax [24]: 8 h
- t1/2 [25]: 8.378 h
- Stability [1]: 88.7%
- Stability [2]: 92.2%
- Drug metabolism [3]: 46.3%
- remaining at 2 h [7]: 90.5%
- Cmax [26]: 0.0039 µg/mL
- remaining at 2 h [8]: 49.4%
- AUC [27]: 0.0442 µg·h/mL
- remaining at 1 h [9]: 66.3%
- AUC [28]: 0.0351 µg·h/mL

SMILES: CC(C)OC(=O)N1CCN(C(=O)c2nc(Nc3cc(C4CC4)[nH]n3)c3cc(Cl)ccc3n2)C[C@H]1C
- Stability [1]: 94.4%
- Stability [2]: 70.2%
- Drug metabolism [3]: 18.7%
- remaining at 2 h [7]: 99%
- remaining at 2 h [8]: 78.5%
- remaining at 1 h [9]: 78.6%

SMILES: C[C@@H]1CN(C(=O)c2nc(Nc3cc(C4CC4)[nH]n3)c3cc(Cl)ccc3n2)CCN1C(=O)OC(C)(C)C
- Stability [1]: 90.2%
- Stability [2]: 37.1%
- Drug metabolism [3]: 20.7%
- remaining at 2 h [7]: 99.1%
- remaining at 2 h [8]: 73.7%
- remaining at 1 h [9]: 71.3%

SMILES: C[C@@H]1CN(C(=O)c2nc(Nc3cc(C4CC4)[nH]n3)c3cc(Cl)ccc3n2)CCN1C(=O)OCc1ccccc1
- Stability [1]: 93.6%
- Stability [2]: 84.7%
- Drug metabolism [3]: 13.5%
- remaining at 2 h [7]: 97.7%
- remaining at 2 h [8]: 86.2%
- remaining at 1 h [9]: 45.6%

SMILES: CC(C)COC(=O)N1CCN(C(=O)c2nc(Nc3cc(C4CC4)[nH]n3)c3cc(Cl)ccc3n2)C[C@H]1C
- Cmax [29]: 0.0074 µg/mL
- Stability [1]: 88.8%
- Stability [2]: 70.2%
- Drug metabolism [3]: 25.7%
- remaining at 2 h [7]: 99%
- t1/2 [30]: 16.723 h
- remaining at 2 h [8]: 73.7%
- Tmax [31]: 1.5 h
- remaining at 1 h [9]: 61.1%
- AUC [32]: 0.0635 µg·h/mL
- AUC [33]: 0.1112 µg·h/mL
